Assay: Stability of lorazepam with ODT excipients and coatings

## O=C1Nc2ccc(Cl)cc2C(c2ccccc2Cl)=NC1O (centres unmarked) [lorazepam, 7-chloro-5-(2-chlorophenyl)-1,3-dihydro-3-hydroxy-2H-1,4-benzodiazepin-2-one]
Lorazepam coated with EUDRAGIT® E-100
  stability when coated: unstable
With mannitol and super disintegrants such as crosslinked PVP
  stability with ODT excipients: unstable
